The source made the active and inactive calls.
Tests used:
Coagulation factor XII = target: T1, Coagulation factor XII (Homo sapiens, UniProt P00748); assay type: functional;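 further: activated factor XIIa alpha cleaving a fluorogenic AMC peptide substrate; inhibitor potency from loss of enzyme activity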
T1 sequence (P00748 whole entry): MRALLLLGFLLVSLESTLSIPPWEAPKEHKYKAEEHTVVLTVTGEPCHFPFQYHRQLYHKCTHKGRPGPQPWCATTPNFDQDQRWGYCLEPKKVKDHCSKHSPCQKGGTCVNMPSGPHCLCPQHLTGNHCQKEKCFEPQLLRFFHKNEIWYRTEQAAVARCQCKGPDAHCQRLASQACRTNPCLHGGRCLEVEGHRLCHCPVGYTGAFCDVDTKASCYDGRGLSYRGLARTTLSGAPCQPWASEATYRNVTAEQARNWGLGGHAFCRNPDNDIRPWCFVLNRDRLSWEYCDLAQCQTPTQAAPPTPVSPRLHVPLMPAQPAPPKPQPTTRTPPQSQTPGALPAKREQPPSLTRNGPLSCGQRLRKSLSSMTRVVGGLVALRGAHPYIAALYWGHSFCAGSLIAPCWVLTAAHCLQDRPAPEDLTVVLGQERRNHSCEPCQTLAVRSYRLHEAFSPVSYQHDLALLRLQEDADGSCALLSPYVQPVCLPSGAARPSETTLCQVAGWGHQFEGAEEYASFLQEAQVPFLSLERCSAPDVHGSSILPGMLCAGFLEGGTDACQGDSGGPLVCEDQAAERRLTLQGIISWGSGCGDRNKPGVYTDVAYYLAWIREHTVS

Aminopeptidase N = target: T2, Aminopeptidase N (Plasmodium falciparum FcB1/Columbia, UniProt O96935); experiment: P. falciparum M1AAP inhibitors, biochemical, fluorogenic H-Leu-NHMec substrate, 1536-well (AID 1445); set-up: species or system Plasmodium falciparum 3D7, 3D7
T2 sequence (O96935 whole entry): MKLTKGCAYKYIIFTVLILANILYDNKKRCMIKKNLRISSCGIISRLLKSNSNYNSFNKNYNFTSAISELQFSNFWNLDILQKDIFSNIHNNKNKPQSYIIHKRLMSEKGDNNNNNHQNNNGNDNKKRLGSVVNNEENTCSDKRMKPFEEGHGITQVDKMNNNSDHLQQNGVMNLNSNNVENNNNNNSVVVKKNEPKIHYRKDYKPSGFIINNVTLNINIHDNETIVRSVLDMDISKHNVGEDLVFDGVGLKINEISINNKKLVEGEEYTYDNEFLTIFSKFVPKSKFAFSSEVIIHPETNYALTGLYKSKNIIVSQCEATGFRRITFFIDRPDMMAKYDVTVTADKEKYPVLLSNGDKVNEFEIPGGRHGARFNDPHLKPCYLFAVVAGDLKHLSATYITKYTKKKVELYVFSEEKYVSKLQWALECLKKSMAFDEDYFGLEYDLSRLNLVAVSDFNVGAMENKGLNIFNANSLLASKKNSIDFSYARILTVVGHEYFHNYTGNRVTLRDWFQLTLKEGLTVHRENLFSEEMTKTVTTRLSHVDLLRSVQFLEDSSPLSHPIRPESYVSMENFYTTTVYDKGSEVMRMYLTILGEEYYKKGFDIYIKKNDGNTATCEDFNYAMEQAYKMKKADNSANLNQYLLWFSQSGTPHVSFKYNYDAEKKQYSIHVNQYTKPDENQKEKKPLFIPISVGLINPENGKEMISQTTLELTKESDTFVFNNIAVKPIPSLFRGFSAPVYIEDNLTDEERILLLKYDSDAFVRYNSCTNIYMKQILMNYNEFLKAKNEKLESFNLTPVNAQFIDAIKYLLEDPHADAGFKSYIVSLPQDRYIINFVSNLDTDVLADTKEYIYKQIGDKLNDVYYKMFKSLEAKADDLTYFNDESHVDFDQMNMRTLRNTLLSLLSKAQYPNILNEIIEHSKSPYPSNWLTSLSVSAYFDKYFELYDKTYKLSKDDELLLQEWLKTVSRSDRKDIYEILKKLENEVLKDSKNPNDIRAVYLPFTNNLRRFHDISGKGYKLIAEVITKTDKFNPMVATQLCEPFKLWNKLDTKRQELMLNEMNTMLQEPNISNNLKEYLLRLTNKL

[1] = target: Peroxisome proliferator-activated receptor gamma/Nuclear receptor coactivator 3 (Homo sapiens, UniProt P37231); experiment: TR-FRET dose response biochemical High Throughput Screening assay for agonists of the steroid receptor coactivator 3 (SRC-3) recruitment by the peroxisome proliferator-activated receptor gamma (PPAR gamma): non-selective agonists. [Related pubchem assays: 1301 (Confirmation screen.), 1048 (Primary screen.)]; assay type: functional
[2] = target: Peroxisome proliferator-activated receptor gamma/Nuclear receptor coactivator 2 (Homo sapiens, UniProt P37231); experiment: (§1) TR-FRET dose response biochemical High Throughput Screening assay for agonists of the steroid receptor coactivator 2 (SRC-2) recruitment by the peroxisome proliferator-activated receptor gamma (PPAR gamma): non-selective agonists. [Related pubchem assays: 1297, 1032 ]; assay type: functional
[3] = target: Peroxisome proliferator-activated receptor gamma/Nuclear receptor coactivator 1 (Homo sapiens, UniProt P37231); experiment: as §1, with “1 (SRC-1)” for “2 (SRC-2)”, “assays (depositor defined):AID1300, AID1808, AID504735, AID631]” for “assays: 1297, 1032 ]”; assay type: protein assay
[4] = target: Eukaryotic translation initiation factor 4E (Mus musculus, UniProt P63073); experiment: eIF4E–eIF4G protein interaction inhibitors, dose response, biochemical, TR-FRET (AID 855); assay type: functional;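 further: potency for disrupting eIF4E binding to eIF4GI seen as loss of FRET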
[5] = inhibitors of firefly luciferase expression or activity, dose response, H4 neuroglioma cells, luminescence (AID 1990); assay type: functional, cell-based
[6] = inhibitors of SNCA 5'UTR-driven reporter translation, confirmation, H4 neuroglioma cells, luminescence (AID 1988); assay type: functional, cell-based
[7] = cytotoxicity in HEK-293T cells, dose response, cytotoxicity control for BCR NF-kB inhibitor project, luminescence, B-cell screen hits (AID 489021); assay type: functional, cell-based;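 further: HEK-293T cells carrying an NF-kB luciferase reporter; cells exposed to compound for about 14 hours before viability readout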
[8] = Luminescence Cell-Based Dose Response HTS to Identify Inhibitors of 5'UTR Stem-Loop Driven Prion Protein mRNA Translation in H4 Neuroglioblastoma Cells. [Related pubchem assays: 1827 (Project Summary), 1813 (Primary HTS)]; assay type: functional
H9c2 = experiment: cells; assay type: functional, cell-based; conditions: Rattus norvegicus, H9c2, Myocardium
[9] = target: T3, RNA-binding protein pos-1 (Caenorhabditis elegans, UniProt G5EF15); experiment: inhibitors of POS-1/mex-3 RNA binding, dose response, biochemical, fluorescence polarization (AID 1964);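 further: purified POS-1 fused to maltose binding protein made in E. coli; potency of compounds blocking POS-1 binding to fluorescent RNA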
T3 sequence (G5EF15 whole entry): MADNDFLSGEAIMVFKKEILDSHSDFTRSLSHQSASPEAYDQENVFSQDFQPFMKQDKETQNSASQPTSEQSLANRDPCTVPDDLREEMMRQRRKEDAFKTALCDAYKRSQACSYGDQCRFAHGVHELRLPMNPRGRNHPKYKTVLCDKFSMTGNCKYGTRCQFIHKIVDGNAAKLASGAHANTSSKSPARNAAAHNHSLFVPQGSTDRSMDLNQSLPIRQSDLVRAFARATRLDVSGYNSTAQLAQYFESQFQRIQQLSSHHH

[10] = target: T4, Zinc finger protein mex-5 (Caenorhabditis elegans, UniProt Q9XUB2); experiment: MEX-5/TCR-2 RNA interaction inhibitors, dose response, biochemical, C. elegans, fluorescence polarization (AID 1960)
T4 sequence (Q9XUB2 whole entry): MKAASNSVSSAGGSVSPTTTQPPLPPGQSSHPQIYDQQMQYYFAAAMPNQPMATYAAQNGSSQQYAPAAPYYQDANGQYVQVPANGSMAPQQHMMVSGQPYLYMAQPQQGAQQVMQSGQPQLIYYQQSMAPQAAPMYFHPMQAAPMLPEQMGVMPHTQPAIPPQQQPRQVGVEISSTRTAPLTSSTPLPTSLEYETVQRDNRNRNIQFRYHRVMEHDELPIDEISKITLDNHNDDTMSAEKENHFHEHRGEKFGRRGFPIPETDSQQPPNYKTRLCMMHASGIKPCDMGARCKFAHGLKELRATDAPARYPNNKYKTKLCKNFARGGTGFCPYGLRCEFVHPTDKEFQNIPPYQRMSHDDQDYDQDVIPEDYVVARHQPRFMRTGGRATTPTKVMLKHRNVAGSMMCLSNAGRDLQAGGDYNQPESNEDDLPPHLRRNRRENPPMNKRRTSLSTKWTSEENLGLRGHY

HeLa = experiment: HeLa cell cytotoxicity, dose response, cytotoxicity control, 24 h, cherry-picked samples (AID 504726); assay type: functional, cell-based; conditions: Homo sapiens;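 further: potency for cytotoxicity as loss of luminescence signal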
[11] = target: G-protein coupled receptor 55 (Homo sapiens, UniProt Q9Y2T6); experiment: GPR55 agonists via beta-arrestin recruitment, primary screen, imaging, U2OS cells, beta-arrestin-GFP redistribution (AID 1961); assay type: functional
[12] = target: T5, Voltage-gated N-type calcium channel alpha-1B subunit/Amyloid beta A4 precursor protein-binding family A member 1 (Homo sapiens, UniProt Q00975+Q02410); assay type: protein assay
[13] = target: T5, Voltage-gated N-type calcium channel alpha-1B subunit/Amyloid beta A4 precursor protein-binding family A member 1; assay type: protein assay; remark: listed apart in the source
HEK293 [14] = experiment: cells; conditions: Homo sapiens
HEK293 [15] = experiment: cells; conditions: Homo sapiens; remark: listed apart in the source

T5 sequence (Q00975 whole entry): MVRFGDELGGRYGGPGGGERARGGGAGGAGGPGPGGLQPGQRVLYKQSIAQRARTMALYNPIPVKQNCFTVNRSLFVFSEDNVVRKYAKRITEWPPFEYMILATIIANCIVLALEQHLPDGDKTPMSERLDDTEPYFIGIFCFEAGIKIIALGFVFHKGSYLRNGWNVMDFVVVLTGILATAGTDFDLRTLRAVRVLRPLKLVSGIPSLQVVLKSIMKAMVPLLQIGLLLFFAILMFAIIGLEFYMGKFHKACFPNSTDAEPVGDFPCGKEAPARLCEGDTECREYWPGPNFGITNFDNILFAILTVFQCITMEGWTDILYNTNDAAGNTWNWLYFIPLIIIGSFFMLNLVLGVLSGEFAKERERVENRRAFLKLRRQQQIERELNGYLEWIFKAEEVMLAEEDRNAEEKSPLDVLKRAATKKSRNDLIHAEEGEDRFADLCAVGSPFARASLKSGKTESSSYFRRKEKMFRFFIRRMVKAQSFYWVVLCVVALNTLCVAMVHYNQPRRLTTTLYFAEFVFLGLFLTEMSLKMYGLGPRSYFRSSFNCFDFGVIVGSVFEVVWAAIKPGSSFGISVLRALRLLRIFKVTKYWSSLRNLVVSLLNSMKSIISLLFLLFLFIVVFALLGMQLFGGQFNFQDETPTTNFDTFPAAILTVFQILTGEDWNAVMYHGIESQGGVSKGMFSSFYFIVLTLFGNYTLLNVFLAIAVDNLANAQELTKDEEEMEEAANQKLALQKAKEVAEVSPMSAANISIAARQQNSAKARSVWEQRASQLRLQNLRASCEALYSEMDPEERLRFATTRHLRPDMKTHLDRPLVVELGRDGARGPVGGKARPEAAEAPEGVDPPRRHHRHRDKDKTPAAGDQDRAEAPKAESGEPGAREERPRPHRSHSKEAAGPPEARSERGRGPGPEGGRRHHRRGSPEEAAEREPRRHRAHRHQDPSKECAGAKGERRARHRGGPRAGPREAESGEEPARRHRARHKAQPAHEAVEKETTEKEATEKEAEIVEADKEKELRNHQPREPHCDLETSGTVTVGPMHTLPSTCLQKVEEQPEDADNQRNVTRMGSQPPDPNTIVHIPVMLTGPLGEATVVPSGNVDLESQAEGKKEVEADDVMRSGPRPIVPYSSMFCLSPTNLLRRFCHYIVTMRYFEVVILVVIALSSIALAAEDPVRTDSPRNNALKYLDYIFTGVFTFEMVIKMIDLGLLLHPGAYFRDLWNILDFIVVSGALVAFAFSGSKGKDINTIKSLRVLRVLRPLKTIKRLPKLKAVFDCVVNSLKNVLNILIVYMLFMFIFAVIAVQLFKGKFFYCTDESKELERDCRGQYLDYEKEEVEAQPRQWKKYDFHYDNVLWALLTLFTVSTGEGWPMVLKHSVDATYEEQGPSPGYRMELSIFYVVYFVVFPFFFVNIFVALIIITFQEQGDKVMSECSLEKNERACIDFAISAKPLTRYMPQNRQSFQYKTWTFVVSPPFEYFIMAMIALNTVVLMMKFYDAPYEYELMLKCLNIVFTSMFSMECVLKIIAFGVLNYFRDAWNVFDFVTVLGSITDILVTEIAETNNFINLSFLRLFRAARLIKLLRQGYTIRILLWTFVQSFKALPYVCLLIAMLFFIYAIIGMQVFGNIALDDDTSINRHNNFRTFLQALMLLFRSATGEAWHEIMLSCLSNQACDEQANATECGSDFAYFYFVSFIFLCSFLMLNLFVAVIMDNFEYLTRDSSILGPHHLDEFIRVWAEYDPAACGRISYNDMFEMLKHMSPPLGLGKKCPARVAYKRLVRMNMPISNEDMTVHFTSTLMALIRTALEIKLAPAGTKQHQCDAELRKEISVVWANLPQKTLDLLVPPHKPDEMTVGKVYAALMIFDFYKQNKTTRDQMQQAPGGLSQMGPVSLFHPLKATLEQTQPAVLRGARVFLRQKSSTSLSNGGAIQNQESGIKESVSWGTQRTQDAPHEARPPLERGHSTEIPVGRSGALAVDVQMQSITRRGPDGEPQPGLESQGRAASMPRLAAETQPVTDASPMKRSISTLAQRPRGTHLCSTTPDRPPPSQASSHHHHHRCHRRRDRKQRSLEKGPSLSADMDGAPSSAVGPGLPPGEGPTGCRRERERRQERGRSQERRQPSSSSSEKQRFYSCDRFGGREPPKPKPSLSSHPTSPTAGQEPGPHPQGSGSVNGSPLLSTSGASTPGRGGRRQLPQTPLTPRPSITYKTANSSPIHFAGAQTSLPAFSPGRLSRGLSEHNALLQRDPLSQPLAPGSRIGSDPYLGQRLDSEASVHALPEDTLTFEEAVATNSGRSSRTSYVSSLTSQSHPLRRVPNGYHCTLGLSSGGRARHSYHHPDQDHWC
T5 sequence (Q02410 whole entry): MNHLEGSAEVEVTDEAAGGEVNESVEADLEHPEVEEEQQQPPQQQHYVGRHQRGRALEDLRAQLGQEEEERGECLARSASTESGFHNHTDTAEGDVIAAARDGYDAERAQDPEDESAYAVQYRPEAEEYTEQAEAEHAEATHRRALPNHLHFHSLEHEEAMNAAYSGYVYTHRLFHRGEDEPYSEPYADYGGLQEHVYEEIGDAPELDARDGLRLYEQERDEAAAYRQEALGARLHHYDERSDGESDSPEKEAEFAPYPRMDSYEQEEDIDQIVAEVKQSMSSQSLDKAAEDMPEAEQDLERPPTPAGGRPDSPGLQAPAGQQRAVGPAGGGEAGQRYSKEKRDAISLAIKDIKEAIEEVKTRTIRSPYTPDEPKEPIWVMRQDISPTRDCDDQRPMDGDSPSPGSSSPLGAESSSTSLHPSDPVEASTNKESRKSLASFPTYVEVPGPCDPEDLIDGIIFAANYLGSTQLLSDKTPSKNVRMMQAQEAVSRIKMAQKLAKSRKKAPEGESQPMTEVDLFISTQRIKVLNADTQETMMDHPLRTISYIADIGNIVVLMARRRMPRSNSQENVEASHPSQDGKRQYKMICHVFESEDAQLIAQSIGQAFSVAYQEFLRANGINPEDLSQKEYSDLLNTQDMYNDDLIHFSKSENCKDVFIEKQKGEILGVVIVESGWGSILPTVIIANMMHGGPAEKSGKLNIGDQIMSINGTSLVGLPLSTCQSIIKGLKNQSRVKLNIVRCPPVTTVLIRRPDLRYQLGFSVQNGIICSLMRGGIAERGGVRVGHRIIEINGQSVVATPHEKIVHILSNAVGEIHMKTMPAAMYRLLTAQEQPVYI
Sequence of Eukaryotic translation initiation factor 4E (P63073 whole entry): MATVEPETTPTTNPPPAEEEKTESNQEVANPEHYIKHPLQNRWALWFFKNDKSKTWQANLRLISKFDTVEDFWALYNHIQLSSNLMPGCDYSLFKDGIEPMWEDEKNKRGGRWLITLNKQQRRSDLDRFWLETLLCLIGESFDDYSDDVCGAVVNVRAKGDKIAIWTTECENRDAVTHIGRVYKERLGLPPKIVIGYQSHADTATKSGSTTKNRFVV
Sequence of G-protein coupled receptor 55 (Q9Y2T6 whole entry): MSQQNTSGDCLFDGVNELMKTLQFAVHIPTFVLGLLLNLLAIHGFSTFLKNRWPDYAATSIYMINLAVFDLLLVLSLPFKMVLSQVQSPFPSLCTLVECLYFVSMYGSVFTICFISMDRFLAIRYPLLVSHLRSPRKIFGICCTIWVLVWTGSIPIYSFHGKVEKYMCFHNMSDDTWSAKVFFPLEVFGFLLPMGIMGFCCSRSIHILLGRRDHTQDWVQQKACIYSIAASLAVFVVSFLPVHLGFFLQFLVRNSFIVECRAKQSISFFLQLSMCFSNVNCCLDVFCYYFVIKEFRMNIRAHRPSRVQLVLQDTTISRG

## CCOC(=O)c1cn(Cc2ccccc2)nn1
Coagulation factor XII
  IC50: > 50 µM (inactive)

## O=C(/C=C/c1cccs1)NC(=S)Nc1ccc(C(=O)O)cc1
Aminopeptidase N
  IC50: 28.8 µM (active)

## O=C(C1=C(O)C(=O)N(CCCN2CCOCC2)C1c1ccncc1)c1cc2ccccc2o1 (stereo unspecified)
[1]
  EC50: > 79.4 µM (not active)
[2]
  EC50: > 79.4 µM (not active)
[3]
  EC50: > 79.4 µM (inactive)

## Cc1ccccc1CSc1nncn1N
[4]
  IC50: > 64 µM (inactive)

## CCOC(=O)C1=NN(C(=O)c2cccc(Br)c2)C(O)(C(C)(C)C)C1 (stereo unspecified)
Aminopeptidase N
  IC50: 44 µM (active)

## COc1cc(OC)cc(-c2cc3nc(C)c(CCC(=O)Nc4nc(C)cs4)c(C)n3n2)c1
[5]
  EC50: 16.9 µM (active)
[6]
  EC50: 24.2 µM (active)
[7]
  IC50: > 80 µM (inactive)
[8]
  EC50: 13.2 µM (active)
H9c2
  IC50: > 79 µM (inactive)

## CCN1/C(=C2/SC(=S)N(NC(C)=O)C2=O)Sc2ccc(OC)cc21
[9]
  EC50: > 300 µM (not active)
[10]
  EC50: > 300 µM (not active)
HeLa
  AC50: 122 µM (active)

## CCc1cccc(OCC(=O)Nc2cc(S(=O)(=O)N3CCOCC3)ccc2N2CCCC2)c1
[11]
  EC50: 4.03 µM (active)

## O=c1oc2c(CN3CCCCC3)c(O)ccc2c2c1CCCC2
Aminopeptidase N
  IC50: 65.3 µM (active)

## COC(=O)c1ccc(OCC(O)CN2CCC(C)CC2)cc1 (stereo unspecified)
HeLa
  AC50: 124 µM (active)

## O=C(CC1CCCCC1)NCC1CCCO1 (stereo unspecified)
[4]
  IC50: > 64 µM (inactive)

## COc1ccc(C(=O)NC(=S)Nc2ccc(NC(=O)c3ccco3)cc2)cc1[N+](=O)[O-]
[12]
  IC50: > 50 µM (inactive)
[13]
  IC50: 11.9 µM (active)

## CCc1cc2c(=O)c(Oc3ccccc3F)c(C)oc2c(CN(C)C)c1O
[12]
  IC50: > 50 µM (inactive)
[13]
  IC50: 1.5 µM (active)

## COc1ccc(CCNC(=O)Cn2cnc3c(cnn3-c3ccccc3Cl)c2=O)cc1OC
[4]
  IC50: > 64 µM (inactive)

## Fc1ccc(-c2csc3ncnc(Nc4ccc(N5CCOCC5)cc4)c23)cc1
HEK293 [14]
  EC50: > 59.6 µM (inactive)
HEK293 [15]
  EC50: > 59.6 µM (inactive)

## COC(=O)c1ccc(C2C(C(=O)c3cc4ccccc4o3)=C(O)C(=O)N2CCCN(C)C)cc1 (stereo unspecified)
[1]
  EC50: > 79.4 µM (not active)
[2]
  EC50: 51.9 µM (not active)
[3]
  EC50: > 79.4 µM (inactive)

## CN1CCN(c2ncnc(Cl)c2N)CC1
Coagulation factor XII
  IC50: > 50 µM (inactive)

## O=C(O/N=C(\c1ccccc1)c1ccccn1)c1cccc2ccccc12
[11]
  EC50: > 32 µM (inactive)

Source: ChEMBL document CHEMBL1201862, “PubChem BioAssay data set” (2004)
